Measurements from US6630491B1, “Use of nicotinic analogs for treatment of degenerative diseases of the nervous system” (priority 1991, dated 2003).
Where a name gives a salt, the structure may show the parent alone.

Tests used:
[1] = test system: isolated terminals (synaptosomes) of cerebral cortex; assay: Release of [3H]aspartate from isolated terminals
Excerpt: (§1) Neurotransmitter release from synaptosomes provides a potential marker for receptor-activity at different types of nerve terminals. Neurotransmitter release from intact slices or minces provides a marker for receptor activity at many sites on the neuron. A comparison of the effects of nicotine and other drugs on synaptosomes versus slices provides some idea as to the location of nicotinic receptors on different types of cerebral cortical neurons, as well as their cellular location.
(§2) These different types of cerebral cortical transmitter systems have been tested. The first is the cholinergic; the procedures used to load cholinergic neurons or slices with newly synthesized [3H]ACh were described previously (Meyer, et al., 1987). The second is aspartate, an excitatory amino acid which, like glutamate, is associated with memory (long term potentiation) and neuropathology (e.g., stroke). The third type of neurotransmitter is GABA, which is the predominant transmitter in the cerebral cortex and is therefore very likely to receive cholinergic innervation.
(§3) In order to measure aspartate or GABA release, tissues were incubated with 100 nM [3H] aspartate or 250 nM [3h] GABA in Krebs Ringer buffer at 37° C. for 30 minutes, then washed them in ice cold buffer. All release-incubations were at 37° C. for 15 minutes in the presence or absence of 50 mM KCl (depolarization). Radiation accumulation was also measured in slices in order to express the released levels of transmitter as % of total transmitter, since slices were somewhat variable with respect to accumulation of label. K+ induced release of transmitter was determined by subtracting the basal release from that in the presence of the elevated K+, such that only the incremental release was determined.
(§4) Neurotransmitter levels (aspartate, glutamate) and enzyme levels were assayed as described by Arendash, et al., Science, 238:952, 1987. […] ACh from synaptosomes. Also, no effect was seen on the release of [3H] aspartate from isolated terminals.

brain tissue slices = assay: Aspartate release from brain tissue slices; details: for aspartate release, dose relation: except at one low concentration, FIGS. 6 and 7
Excerpt: as §2, §3
The fact that nicotine […] without increasing basal release as well as K+ induced release is surprising. One hypothesis is that nicotine stimulates another type of neuron (presumably excitatory) to dis-inhibit the release of aspartate; this dis-inhibition would not be seen except when the aspartate neuron itself was activated by depolarization.

aged rats [2] = assay: Lashley III maze testing of aged rats; format: in vivo, rat; details: aged animals, 2 mg/kg before training, first two blocks of tests, FIG. 5
Excerpt: The Lashley III maze tests an animal's ability to learn a series of left-right alternation turns. Six alternation errors are possible for any given daily trial; chance performance level is 3 errors per trial. Previous studies have shown that young adult sham operated animals quickly learn to reduce their number of alternation errors to near zero by the end of the test period. By contrast, 23 months old (Aged) sham operated animals made substantially more errors over the 25 days of testing. […] Therefore, both age- and lesion-induced learning deficits were observed. Nonetheless, all groups did improve their performance over time.
Aged animals injected with saline or DMAB-anabaseine were evaluated in the Lashley III maze (FIG. 5). […] This reflected an improvement in another memory-related behavior with this nicotine agonist.

aged rats [3] = assay: 17-arm radial maze testing of aged rats; format: in vivo, rat; details: 2 mg/kg 15 minutes prior to each daily trial, FIG. 4
Excerpt: The 17 arm radial maze requires animals to remember a baited set of 8 arms out of the 17 total arms. At the start of each daily trial, rats are placed in the center of the maze and permitted to choose among the 17 arms until all 8 food rewards are taken or until fifteen minutes elapse. Those animals that reach a performance criteria of 17 arm choices on two consecutive days of testing during the first 14 days of testing are continued in testing for an additional 30 days. For such animals, only data collected after day 14 are used in the statistical analyses. Statistical analyses are done on 3 sets of data. The first is a measure of general learning: the percent correct choices (entries into baited arms) over the first 8 arm choices. The second is a measure of short term memory (working memory) calculated from the first 12 arm choices: the percent of choices into baited arms (containing food) over the total number of choices within the baited set. Working memory, an interatrial measure of short term memory, measured the rat's ability to remember which of the arms in the baited set were previously entered and the food reward taken. The third set of data measured long-term or reference memory and also was calculated from the first 12 arm choices. Reference memory, defined as an inter-trial measure, is the percent correct choices in the baited set over the total number of arm choices. […]

[4] = test system: cerebral cortical synaptosomes; assay: Release of newly synthesized [3H]ACh from synaptosomes
Excerpt: as §1, §2, §3, §4

[5] = test system: Male Sprague Dawley albino rats; assay: Passive avoidance behavior in nucleus basalis lesioned and unlesioned rats; format: in vivo, rat; details: for shift (increase) in potency by lesioning: lesioned vs unlesioned animals; for shift (increase) in potency by lesioning / potency in lesioned vs unlesioned animals: passive avoidance; for potency in lesioned vs unlesioned animals: FIGS. 1 and 2; for dose that interfered with training or behavior: after lesioning; for effective dose in passive avoidance behavior: i.p. 5 min before trial and testing
Procedure: Male Sprague Dawley albino rats were used for all studies and were maintained in departmental animal facilities, using NIH guidelines for care of animals. Where lesioned animals were tested, lesions were induced in anesthetized animals by bilateral infusion of ibotenic acid (5 μg in 1 μl) or phosphate buffered saline (PBS) into the nucleus basalis region.
For passive avoidance behavior, animals received a moderately strong shock (0.8 m Amp) for 1 second after entering a dark room. After 24 hours, the animals were again tested to determine if they could remember to stay out of the dark room. Animals were only allowed 5 minutes to make their choice, when they were removed from the lighted chamber. For testing the effects of drugs in animals that were not lesioned, shocks were only 0.5m Amp in intensity, and the animals were allowed 72 hours until they were tested after training. In all drug-treatment studies, the drugs were injected intraperitoneally in saline diluent 5 minutes before the trial and 5 minutes before the testing period.
The effect of (−)anabaseine on passive avoidance was also determined using unlesioned animals (FIG. 3). In these experiments (−)anabaseine was injected intraperitoneally 5 min. before training and testing in the passive avoidance apparatus. Only animals that trained within 300 sec the first time were used (i.e., those animals that entered the dark compartment and received a mild foot shock).

[6] = Water solubility (observation during synthesis); format: physicochemical
Procedure: The lithium enolate of 3nicotinoyl2-piperidone (4.94w) of step 1 was added slowly to a round bottom flask containing 30 mL of concentrated HCl which was chilled in an ice bath and stirred. The enolate was not readily soluble. The reaction mixture was heated at reflux under nitrogen overnight to effect the hydrolysis and decarboxylation. […] The reaction should not be diluted with too much aqueous acid or the product will not crystallize during the work up.

cortical slices [7] = assay: [3H]GABA release from cortical slices
Excerpt: as §2, §3
This pattern was also observed with [3H]ACh release and [3H]GABA release from cortical slices. […]

cortical slices [8] = assay: [3H]ACh release from cortical slices
Excerpt: as §2, §3
This pattern was also observed with [3H]ACh release and [3H]GABA release from cortical slices. Nicotine (100 nM) increased the K+ induced release of ACh but reduced the K+induced GABA release from slices, while anabaseine (1 μM) had no effect on either process. […] Thus, it appears that the ability of nicotinic types of compounds to modulate neurotransmitter release is not mediated through one of the receptors with high affinity for anabaseine, or DMAB-anabaseine.

[9] = test system: vertebrate neuromuscular nicotinic acetylcholine receptors; details: Kem, Amer.Zoologist, 25:99, 1985; cited from earlier work
Sequence of vertebrate neuromuscular nicotinic acetylcholine receptors (P02708 21-457): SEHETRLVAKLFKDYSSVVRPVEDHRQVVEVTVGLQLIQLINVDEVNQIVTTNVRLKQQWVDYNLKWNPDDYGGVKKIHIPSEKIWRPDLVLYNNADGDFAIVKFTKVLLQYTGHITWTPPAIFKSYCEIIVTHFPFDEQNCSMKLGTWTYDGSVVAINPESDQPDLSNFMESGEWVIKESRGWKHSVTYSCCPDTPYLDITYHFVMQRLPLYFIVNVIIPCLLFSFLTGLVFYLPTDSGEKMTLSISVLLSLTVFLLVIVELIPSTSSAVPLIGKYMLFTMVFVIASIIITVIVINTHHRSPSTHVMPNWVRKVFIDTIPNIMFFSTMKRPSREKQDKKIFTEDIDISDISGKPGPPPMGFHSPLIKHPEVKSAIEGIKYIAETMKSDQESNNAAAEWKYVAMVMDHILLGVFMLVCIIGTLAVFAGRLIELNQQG
Sequence of vertebrate neuromuscular nicotinic acetylcholine receptors (P11230 24-501 partner): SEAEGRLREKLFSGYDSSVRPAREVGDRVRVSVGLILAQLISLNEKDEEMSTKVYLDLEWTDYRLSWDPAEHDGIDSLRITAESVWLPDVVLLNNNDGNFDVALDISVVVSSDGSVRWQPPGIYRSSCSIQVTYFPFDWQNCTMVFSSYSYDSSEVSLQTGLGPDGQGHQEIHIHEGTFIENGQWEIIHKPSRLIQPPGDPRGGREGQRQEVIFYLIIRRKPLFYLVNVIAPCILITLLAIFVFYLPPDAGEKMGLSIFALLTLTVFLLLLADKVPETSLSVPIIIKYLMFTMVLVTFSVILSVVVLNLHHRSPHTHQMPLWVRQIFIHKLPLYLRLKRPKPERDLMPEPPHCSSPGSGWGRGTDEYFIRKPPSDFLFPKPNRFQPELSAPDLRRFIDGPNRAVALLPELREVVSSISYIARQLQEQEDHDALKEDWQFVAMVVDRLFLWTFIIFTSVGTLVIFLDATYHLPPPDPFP
Sequence of vertebrate neuromuscular nicotinic acetylcholine receptors (Q07001 22-517 partner): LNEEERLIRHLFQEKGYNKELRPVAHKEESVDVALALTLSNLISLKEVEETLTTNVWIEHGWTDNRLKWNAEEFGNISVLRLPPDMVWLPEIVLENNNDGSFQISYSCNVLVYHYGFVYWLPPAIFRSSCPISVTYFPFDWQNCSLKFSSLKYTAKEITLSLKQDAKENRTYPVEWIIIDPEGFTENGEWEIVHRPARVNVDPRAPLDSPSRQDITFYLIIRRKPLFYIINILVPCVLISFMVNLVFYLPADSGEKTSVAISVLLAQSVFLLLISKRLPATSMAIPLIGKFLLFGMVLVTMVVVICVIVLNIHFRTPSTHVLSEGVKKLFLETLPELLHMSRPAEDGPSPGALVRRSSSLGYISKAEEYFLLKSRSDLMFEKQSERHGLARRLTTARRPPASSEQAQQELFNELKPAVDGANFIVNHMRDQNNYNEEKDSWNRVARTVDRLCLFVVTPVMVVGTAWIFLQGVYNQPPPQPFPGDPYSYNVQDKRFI

[10] = even in animals with reduced neocortical cholinergic activity

Structure (SMILES) | release of [3H]aspartate [1] | aspartate release, dose relation (brain tissue slices) | 50 mM KCl induced release of newly synthesized [3H]ACh [4] | basal release of newly synthesized [3H]ACh [4] | effect on passive avoidance (memory-related) behavior [5, 10] | shift (increase) in potency by lesioning [5] | potency in lesioned vs unlesioned animals [5] | dose that interfered with training or behavior [5] [mg/kg] | other results
CN(C)c1ccc(C=C2CCCN=C2c2cccnc2)cc1 [DMAB-anabaseine, 3-[p-(dimethylamino)benzylidene]-3,4,5,6-tetrahydro-2,3′-bipyridine] | no effect | did not increase aspartate release in a dose-related manner | no effect | no effect | can improve this type of memory-related behavior | 2-2.5 fold | more potent in lesioned then in unlesioned animals | – | number of errors in the maze (aged rats [2]): reduced the number of errors; measure of long term memory (aged rats [3]): improved; short term memory (aged rats [3]): without affecting
c1cncc(C2=NCCCC2)c1 [anabaseine dihydrochloride] | – | – | – | – | – | – | – | – | water solubility [6]: very water soluble
c1cncc(C2=NCCCC2)c1 [anabaseine, 2-(3-pyridyl)-3,4,5,6-tetrahydropyridine] | no effect | did not increase aspartate release in a dose-related manner | no effect | no effect | can improve this type of memory-related behavior | ~2.5 fold | more potent in lesioned then in unlesioned animals | 0.2 | K+ induced GABA release (cortical slices [7]; 1 μM): no effect; K+ induced release of ACh (cortical slices [8]; 1 μM): no effect; effect on passive avoidance (memory-related) behavior ([5]; unlesioned animals, i.p. 5 min before training and testing (FIG. 3)): can improve this type of memory-related behavior; activation of vertebrate neuromuscular nicotinic acetylcholine receptors [9]: potent activator
CN1CCCC1c1cccnc1 (stereo not shown) [nicotine, reference compound] | no effect | – | no effect | no effect | – | – | – | 0.2 | K+ induced release of aspartate (brain tissue slices; 100 nM, FIG. 6): increased; spontaneous release of transmitter (aspartate) (brain tissue slices; 100 nM, FIG. 6): without affecting; K+ induced GABA release (cortical slices [7]; 100 nM): reduced; basal ACh release (cortical slices [8]): increased; K+ induced release of ACh (cortical slices [8]; 100 nM): increased; effective dose in passive avoidance behavior ([5]; nucleus basalis lesioned animals): 0.02 mg/kg; effective dose in passive avoidance behavior ([5]; unlesioned animals): 0.05 mg/kg
